Reference: patent US20230234917A1, “ASPARAGINE DERIVATIVES AND METHODS OF USING SAME” (priority 2020, published 2023)

Key:
ClbP [1] = biological target: T1, ClbP (Escherichia coli, UniProt Q0P7K6); experiment: ClbP whole cell activity (inhibition) assay, fluorogenic substrate; format: cell-based, E. coli
Description: Whole Cell Activity Assay
(§1) 1) E. coli ClbP+ were taken from a frozen stock and streaked onto BHI plates. They were grown aerobically at 37° C. overnight in the incubator.
(§2) 1) A single colony was selected from the plate and inoculated into 30 mL LB in a 50 mL conical vial eight times (240 mL total). The bacteria were grown aerobically overnight (16-20 h) at 37° C. on a nutator with rocking.
1) The saturated overnight culture was centrifuged to create a firm pellet (3,200 g, 10 min, 4° C.). In a biosafety cabinet, the supernatant was removed and then the pellet was resuspended in 30 mL sterile PBS.
2) The bacteria were centrifuged again (3,200 g, 10 min, 4° C.). The supernatant was removed, and the pellet was resuspended in sterile PBS buffer (6 mL) in each of the 8 tubes. This fivefold concentrated bacterial solution was the working solution.
3) The bacterial working solution (192 μL) was mixed with inhibitor (6 μL, final concentration was 300, 100, 33.3, 11.1, 3.7, 1.2, 0.4, or 0 μM). Fluorogenic substrate (2 μL, final concentration 5 μM) was immediately added across the plate to initiate the reaction. As a control, each plate contained Compound No. III in this dose response curve. The bacterial concentration was fivefold concentrated compared to the original saturated overnight culture. Carryover from DMSO was 4% (v/v). All compounds were tested in singlicate.
(§3) 4) The plate was loaded into a spectrophotometer preheated to 37° C. The fluorescence was recorded every 2 min for 46 min. The excitation wavelength was 360 nm (20 nm bandwidth), the emission wavelength was 460 nm (20 nm bandwidth), the optics position was bottom, the gain was 65, the light source was a tungsten bulb, and the read speed was normal.
(§4) 5) The linear portion of the fluorescence increase was 10-30 min. The rate of fluorescence increase (A.U./min) for each well in an inhibitor series was normalized to the 0 μM inhibitor condition. The normalized activity as a function of inhibitor concentration was then fit to a three parameter IC50 curve in Graphpad Prism.
(§5) “A” indicates an IC50 value less than 100 μM, “B” indicates an IC50 between 100 and 300 μM, “C” indicates an IC50 above 300 μM.

ClbP [2] = biological target: T1, ClbP; experiment: ClbP cell lysate activity (inhibition) assay, fluorogenic substrate; format: biochemical; conditions: ClbP Lysate Inhibition Assay: IC50, E. coli ClbP+ lysozyme-EDTA lysates, 5 μM fluorogenic substrate, inhibitor 0-300 μM, 37° C., singlicate
Description: Cell Lysate Activity Assay
as §1, §2
1) The saturated overnight culture was centrifuged to create a firm pellet (3,200 g, 10 min, 4° C.). The supernatant was removed and then the pellet was resuspended in 30 mL sterile PBS.
2) The bacteria were centrifuged again (3,200 g, 10 min, 4° C.). The supernatant was removed, and the pellet was resuspended in sterile PBS buffer (3 mL) in each 8 tubes to make a tenfold concentrated bacterial solution.
3) A lysozyme-EDTA (LE) solution was made in ddH2O (0.05 mg/mL lysozyme, 0.25 M EDTA).
4) For each of the eight tubes, LE solution (3 mL) was mixed with concentrated bacterial solution (3 mL). This mixture was incubated at 37° C. for 30 min to generate the lysates.
5) The lysates (192 μL) were mixed with inhibitor (6 μL, final concentration was 300, 100, 33.3, 11.1, 3.7, 1.2, 0.4, or 0 μM). Fluorogenic substrate (2 μL, final concentration 5 μM) was immediately added across the plate to initiate the reaction. As a control, each plate contained Compound No. III in this dose response curve. The final concentration of bacterial lysates was fivefold concentrated compared to the original saturated overnight culture. Carryover from DMSO was 4% (v/v). All compounds were tested in singlicate.
as §3, with “6)” for “4)”
as §4, with “7)” for “5)”, “0-20” for “10-30”
as §5

Full-length WT ClbP = Full-length WT ClbP (Escherichia coli, UniProt Q0P7K6); experiment: ClbP molecular (purified protein) enzymatic inhibition assay, fluorogenic substrate; format: biochemical, E. coli
Description: ClbP Molecular (Purified Protein) Assay
1) Full-length WT ClbP was thawed on ice. A diluted enzyme solution (2 nM) was made by mixing 3.57 μL of enzyme with 20 mL of reaction buffer (50 mM Tris pH 8.0, 200 mM NaCl, 0.02% (w/v) n-dodecyl-b-D-maltoside (DDM)).
2) In a 96 well plate, the diluted protein solution (73.5 μL) was mixed with inhibitor (1.5 μL, of varying concentrations, see below) and preincubated for 15 min at room temperature. Then, reaction buffer (75 μL) containing 10 μM fluorogenic substrate was added to initiate the reaction. After addition of substrate, the final concentrations were 1 nM full-length WT ClbP, 5 μM fluorogenic substrate in 50 mM Tris pH 8.0, 200 mM NaCl, 0.02% (w/v) DDM, with either 0, 0.14, 0.41, 1.2, 3.7, 11, 33, or 100 μM inhibitor. For all conditions, the DMSO carryover was 2% (v/v) at the preincubation stage and 1% in the reaction stage. Compound No. III was always present as a control in each plate, and all compounds were tested in singlicate. In previous assays, the Km of the fluorogenic substrate was determined to be approximately 5 μM.
3) Immediately after addition of substrate to enzyme, the plate was transferred into a spectrophotometer held at room temperature. The fluorescence was recorded every 1.5 min for 15 min. The excitation wavelength was 360 nm (20 nm bandwidth), the emission wavelength was 440 nm (20 nm bandwidth), the optics position was bottom, the gain was extended, the light source was a xenon flash lamp, and the read speed was normal.
as §4, with “4)” for “5)”, “is at least from 0-6 min, so this time regime is used.” for “was 10-30 min.”
as §5

Compound	IC50 (ClbP [1]) [µM]	IC50 (ClbP [2]) [µM]	IC50 (Full-length WT ClbP) [µM]
CCCCCCCCCC(=O)N[C@H](CC(N)=O)C(=O)NCCc1ccccc1 [Compound CCLXVI]	< 100	< 100	< 100
CC(=O)N[C@H](CC(N)=O)C(=O)NCCc1ccccc1 [Compound CCLXV]	> 300	> 300	100 to 300
CCCCCCCC(=O)N[C@@H](/C=C/C(=O)OCC)CC(N)=O [Compound CCLXXIII]	> 300	> 300	100 to 300
CCCCCCCC(=O)N[C@H](CC(N)=O)C(=O)NCCc1ccc(F)cc1 [Compound CCLXXIV]	< 100	< 100	< 100
NC(=O)C[C@@H](NC(=O)CC1CCCCC1)C(=O)NCCc1ccccc1 [Compound CCLXXI]	100 to 300	> 300	< 100
CCCCCCCC(=O)N[C@H](CC(N)=O)C(=O)N(C)CCc1ccc(O)cc1 [Compound CCLXXVII]	< 100	< 100	< 100
CCCCCCCC(=O)N[C@H](CC(N)=O)C(=O)N(CCc1ccc(O)cc1)C(C)C [Compound CCLXXVI]	> 300	< 100	< 100
CCCCCC(=O)N[C@H](CC(N)=O)C(=O)NCCc1ccc(C(F)(F)F)cc1 [Compound CCLXXV]	> 300	> 300	< 100
CCCCCCCC(=O)N[C@H](CC(N)=O)C(=O)C(=O)NCc1ccccc1 [Compound CCLXXXIII]	< 100	< 100	< 100
O=C(C[C@@H](NC(=O)CCC1CCCCC1)C(=O)NCCc1ccc(O)c(O)c1)NO [Compound CCLXXXIV]	100 to 300	100 to 300	< 100
CCCCCCCC(=O)N[C@H]1CC(=O)NC1(O)C(=O)NCc1ccccc1 (stereo partly drawn) [Compound CCLXXXIX]	100 to 300	100 to 300	< 100
CCCCCCCC(=O)N[C@H](CN[C@@H](C)C(=O)OC)CC(N)=O [Compound CCLXXXI]	> 300	> 300	100 to 300
CCCCCCCC(=O)N[C@H](CC(=O)NOC)C(=O)NCCc1ccc(O)cc1 [Compound CCLXXXV]	100 to 300	100 to 300	< 100
CCCCCCCC(=O)N[C@@H](CN[C@@H](C)C(=O)OC)CC(N)=O [Compound CCLXXX]	> 300	> 300	100 to 300
NC(=O)C[C@@H](NC(=O)CCCC1CCCCC1)C(=O)NCCc1ccccc1 [Compound CCLXX]	< 100	< 100	< 100
NC(=O)C[C@@H](NC(=O)/C=C/CC1CCCC1)C(=O)NCCc1ccc(O)cc1 [Compound CCLX]	< 100	< 100	< 100
NC(=O)C[C@@H](NC(=O)CCC1CCCC1)C(=O)NCCc1ccccc1 [Compound CCL]	< 100	< 100	< 100

Compound	IC50 (ClbP [1]) [µM]	IC50 (ClbP [2]) [µM]	IC50 (Full-length WT ClbP) [µM]
CCCCCCCC(=O)N[C@H](CC(N)=O)C(=O)NCCc1ccncc1 [Compound CCVIII]	< 100	< 100	< 100
CCCCCCCC(=O)N[C@H](CC(N)=O)c1nc2ccccc2[nH]1 [Compound CCVII]	> 300	> 300	< 100
CCCCCCCC(=O)N[C@H](CC(N)=O)C(=O)NCCc1ccsc1 [Compound CCVI]	< 100	< 100	< 100
CCCCCCCC(=O)N[C@H](CC(N)=O)C(=O)NCCc1ccccn1 [Compound CCV]	< 100	< 100	< 100
CCCCCCCC(=O)N[C@H](CC(=O)NO)C(=O)NCCc1ccc(O)c(O)c1 [Compound CCXCIII]	< 100	< 100	< 100
NC(=O)C[C@@H](NC(=O)CCCCC(F)(F)F)C(=O)NCCc1ccc(O)cc1 [Compound CCXCII]	< 100	< 100	< 100
O=C(/C=C/C1CCCCC1)N[C@H](CC(=O)NO)C(=O)NCCc1ccc(O)cc1 [Compound CCXCIV]	< 100	< 100	< 100
O=C(C[C@@H](NC(=O)CCCC1CCCC1)C(=O)NCCc1ccc(O)cc1)NO [Compound CCXCIX]	< 100	< 100	< 100
CN(CCCCCC(=O)N[C@H](CC(N)=O)C(=O)NCCc1ccc(O)cc1)Cc1ccccc1 [Compound CCXCI]	< 100	< 100	< 100
O=C(/C=C/CC1CCCC1)N[C@H](CC(=O)NO)C(=O)NCCc1ccc(O)cc1 [Compound CCXCVIII]	< 100	< 100	< 100
O=C(/C=C/CC1CCCCC1)N[C@H](CC(=O)NO)C(=O)NCCc1ccc(O)cc1 [Compound CCXCVII]	< 100	< 100	< 100
O=C(C[C@@H](NC(=O)CCCC1CCCCC1)C(=O)NCCc1ccc(O)cc1)NO [Compound CCXCVI]	< 100	< 100	< 100
O=C(C[C@@H](NC(=O)CCC1CCCCC1)C(=O)NCCc1ccc(O)cc1)NO [Compound CCXCV]	< 100	< 100	< 100
CCCCCCCC(=O)N[C@@H]1CC(=O)NC1(O)C(=O)NCCCC (stereo partly drawn) [Compound CCXC]	< 100	< 100	< 100
CCCCCCCC(=O)N[C@H](CC(N)=O)C(=O)NCCCc1ccccc1 [Compound CCXIII]	< 100	< 100	< 100
CCCCCCC(C)(C)C(=O)N[C@@H](CNCCc1ccccc1)CC(N)=O [Compound CCXII]	> 300	> 300	100 to 300
CCCCCCCC(N[C@H](CC(N)=O)C(=O)NCCc1ccccc1)C(F)(F)F (stereo partly drawn) [Compound CCXIV]	> 300	> 300	< 100
